# Where two headings read alike, the source gives them in different places.
# How the values were obtained:
# [1] = tested on: K. pneumoniae NVT1001 and its ΔompK35/36 and/or ΔramR mutants; test: Etest MIC, OmpK35/36 loss and AcrAB-TolC overexpression (ΔramR) strains (Table 6); type: cell-based, Klebsiella pneumoniae; details: Klebsiella pneumoniae
# Procedure, shortened: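 Etest MICs against K. pneumoniae NVT1001 and its ΔompK35/36 and/or ΔramR mutants, rounded up to the next two-fold value. For NVT1001 carrying pACYC177-blaOXA-48, ceftazidime and cefotaxime MICs by CLSI broth microdilution, interpreted with CLSI 2017 breakpoints.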
# [2] = tested on: K. pneumoniae NVT1001 ΔramRΔompK35/36 mutant and its revertants; test: Etest MIC, ΔramRΔompK35/36 mutant and its revertants (Table 7); type: cell-based; details: Klebsiella pneumoniae
# [3] = ΔramRΔ35/36, ΔramRΔompK35/36 mutant
# [4] = ΔramRΔompK35/36::ompK35/36 revertant
# [5] = ΔramRΔompK35/36::ompK35 revertant
# [6] = ΔramRΔompK35/36::ompK36 revertant
# [7] = ΔramRΔompK35/36::ramR revertant
# [8] = ΔramRΔompK35/36::ramR::ompK35/36 revertant
# [9] = ΔramRΔompK35/36::ramR::ompK35 revertant
# [10] = ΔramRΔompK35/36::ramR::ompK36 revertant
SMILES,"MIC ([1]; WT, NVT1001, read-out: MIC) [mg/L]","MIC ([1]; Δ35, ΔompK35 mutant) [mg/L]","MIC ([1]; Δ35/36, ΔompK35/36 mutant) [mg/L]","MIC ([1]; Δ36, ΔompK36 mutant) [mg/L]",MIC ([1]; ΔramR mutant) [mg/L],"MIC ([1]; ΔramRΔ35, ΔramRΔompK35 mutant) [mg/L]","MIC [1, 3] [mg/L]","MIC ([1]; ΔramRΔ36, ΔramRΔompK36 mutant) [mg/L]","MIC [2, 4] [mg/L]","MIC [2, 5] [mg/L]","MIC [2, 6] [mg/L]","MIC [2, 7] [mg/L]","MIC [2, 8] [mg/L]","MIC [2, 9] [mg/L]","MIC [2, 10] [mg/L]",MIC ([2]; ΔramRΔompK35/36 mutant) [mg/L]
"CC1COc2c(N3CCN(C)CC3)c(F)cc3c(=O)c(C(=O)O)cn1c23 (centres unmarked) [Ofloxacin, ofloxacin]",0.25,0.25,0.25,0.25,2,2,2,2,2,2,2,0.25,0.25,0.25,0.25,2
"COc1c(N2C[C@@H]3CCCN[C@@H]3C2)c(F)cc2c(=O)c(C(=O)O)cn(C3CC3)c12 [Moxifloxacin, moxifloxacin]",0.125,0.125,0.125,0.06,1,1,1,1,0.5,1,0.5,0.06,0.125,0.06,0.125,1
"C[C@H]1COc2c(N3CCN(C)CC3)c(F)cc3c(=O)c(C(=O)O)cn1c23 [Levofloxacin, levofloxacin]",0.06,0.125,0.125,0.125,1,1,1,1,0.5,1,0.5,0.125,0.06,0.06,0.125,1
"CCn1cc(C(=O)O)c(=O)c2cc(F)c(N3CCNCC3)cc21 [Norfloxacin, norfloxacin]",0.25,0.25,0.5,0.25,2,2,2,2,2,2,2,0.5,0.25,0.25,0.25,2
"CCn1cc(C(=O)O)c(=O)c2ccc(C)nc21 [Nalidixic acid, nalidixic acid]",4,8,8,4,32,64,32,32,64,32,64,8,8,8,8,32

# From US10760110B2, “Antibiotic testing and screening system” (priority 2017, dated 2020)
